This note sets out measurements from ChEMBL document CHEMBL3880439, “Cyclopentanone and cyclopentanone derivatives as potent activators of HSF-1” (2004).

Data set [1] has as its target Heat shock factor protein (Homo sapiens) (UniProt Q00613+Q03933+Q9ULV5). In words: Activation of HSF in human HeLa cell clone 13B after 8 hrs by luciferase reporter gene assay. Format: cell-based. For orientation: A reporter such as luciferase makes a cellular process visible.
Data set [2] is described as follows: Cytotoxicity against human HeLa cells incubated for 8 hrs measured after 6 hrs by Alamar blue assay. The format is cell-based. The settings on record: read-out: LC50. (In general: Resazurin is reduced to fluorescent resorufin, in cell work by metabolically active cells.)
Data set [3] in a line: Cytotoxicity against African green monkey 37RC cells incubated for 8 hrs measured after 6 hrs by neutral red assay. Format: cell-based. The settings on record: chlorocebus aethiops, read-out: LC50.
A further data set relates to Respirovirus muris. Briefly: Antiviral activity against Sendai virus infected in African green monkey 37RC cells assessed as inhibition of viral replication at 24 hrs by haemagglutinin titration method. The format is functional. The settings on record: read-out: ID50 (the source's name).
Data set [4] is described as follows: Cytotoxicity against African green monkey 37RC cells by microscopic method. Format: cell-based. Particulars: chlorocebus aethiops.
Data set [5] can be described thus: Toxicity in iv dosed anaesthetized rat assessed as decrease in blood pressure administered as infusion. The format is organism-based. The settings on record: in vivo.

Some results are limits rather than exact numbers.

Compound `O=C1C=CC(NC(=O)c2ccccc2)C1` (configuration not stated) gave an AC200 in data set [1] of 51 µM. Further, the CC50 at 8 h was greater than 800 µM in data set [2] and 59 µM in data set [3]. Moreover, the IC50 in the data set with Respirovirus muris worked out at 20 µM. The compound also registered a TD100 in data set [4] of 100 µM.
On to `CC(C)/C=C1/C(=O)C=C[C@H]1NC(=O)OC(C)(C)C`, for which, in data set [1], the AC200 was 5 µM. Besides, the CC50 at 8 h in data set [2] is greater than 800 µM; in data set [3], 4 µM. Moreover, the IC50 in the data set with Respirovirus muris came out at 0.4 µM. In addition, the TD100 in data set [4] worked out at 10 µM.
Take `CC(C)/C=C1\C(=O)C=CC1NC(=O)c1ccccc1` (configuration not stated): the AC200 in data set [1] is less than 6.2 µM. Moreover, the CC50 at 8 h in data set [2] came to 50 µM; in data set [3], 4 µM. Besides, the IC50 in the data set on Respirovirus muris stood at 0.3 µM. The compound further displayed a TD100 in data set [4] of 10 µM.
`Cc1cc(C)c(/C=C2/C(=O)C=C[C@@H]2NC(=O)OC(C)(C)C)c(C)c1`: in data set [1], the AC200 was less than 6.2 µM. Besides, the CC50 at 8 h in data set [3] came out at 25 µM.
Regarding `CCCCCC/C=C1/C(=O)C=CC1C` (configuration not stated), the AC200 in data set [1] is less than 6.2 µM. For the same compound, the CC50 at 8 h in data set [2] stood at 234 µM.
In turn, `CC(C)/C=C1/C(=O)C=C[C@@H]1NC(=O)OC(C)(C)C` displayed an AC200 in data set [1] of 1.8 µM. For the same compound, the results for the CC50 at 8 h in data set [2] and in data set [3] were greater than 800 µM and 4 µM, respectively. Further, in the data set with Respirovirus muris, the IC50 was determined as 1 µM. Moreover, in data set [4], the TD100 amounted to 50 µM.
In data set [1], `O=C1C=CC(NC(=O)Oc2ccccc2)C1` (configuration not stated) yielded an AC200 of 10 µM. Besides, the CC50 at 8 h in data set [3] stood at 74 µM.
On the same counts, the results for `COC(=O)[C@H](CS[C@@H]1CC(=O)C[C@H]1NC(=O)Oc1ccccc1)NC(=O)OC(C)(C)C` are 13 µM and 76 µM.
`CCCCC1C=CC(=O)/C1=C/CC(C)C` (configuration not stated) had an AC200 in data set [1] of 13 µM. The CC50 at 8 h in data set [2] is 227 µM. The IC50 with Respirovirus muris is 0.3 µM. For the same compound, the TD100 in data set [4] stood at 50 µM.
Compound `O=C1C=CC(Nc2ccccc2)C1` (configuration not stated) displayed an AC200 in data set [1] of 27 µM. Besides, the CC50 at 8 h in data set [2] is greater than 800 µM.
`CC(C)(C)OC(=O)N[C@@H](CS[C@@H]1CC(=O)/C(=C/c2ccccc2)[C@H]1NC(=O)OC(C)(C)C)C(=O)O` displayed an AC200 in data set [1] of less than 6.2 µM. In addition, in data set [3], the CC50 at 8 h stood at 25 µM.
`CCCCC[C@H](O)/C=C/[C@H]1C=CC(=O)[C@@H]1CCCCCCC(=O)O` [PROSTAGLANDIN A1]: the Activity entry in data set [5] is reported as “Toxic”.
`CCOC(=O)NC1C=CC(=O)C1` (configuration not stated) came in with an AC200 in data set [1] of 49 µM. Further, the CC50 at 8 h in data set [3] worked out at 104 µM.
In the case of `CCCCC1C=CC(=O)/C1=C/C1CC1` (configuration not stated), the AC200 in data set [1] came out at 8 µM. In addition, the CC50 at 8 h in data set [2] was found to be 239 µM.
Consider `CC(C)(C)OC(=O)NC1C=CC(=O)/C1=C/c1ccc(Cl)cc1` (configuration not stated), for which the AC200 in data set [1] turned out to be 2 µM. Also, the CC50 at 8 h in data set [2] was greater than 800 µM; in data set [3] it was 3.4 to 72 µM. In addition, the IC50 in the data set with Respirovirus muris came out at 0.6 µM. For the same compound, the TD100 in data set [4] was 10 µM.
On the same counts, the results for `CC(C)(C)OC(=O)NC1C=CC(=O)/C1=C/c1ccccc1` (configuration not stated) are 1.8 µM, greater than 800 µM, 33 µM, 0.6 µM and 10 µM.
Regarding `C[C@H]1C=CC(=O)/C1=C/c1ccc([N+](=O)[O-])cc1`, in data set [1], the AC200 was found to be 2 µM. Also, the CC50 at 8 h in data set [2] is greater than 800 µM.
On the same counts, the results for `COC(=O)[C@H](CSC1CC(=O)/C(=C/C(C)C)C1C)NC(=O)OC(C)(C)C` (some centres not stated) are 18 µM and greater than 800 µM.
On to `CC(C)/C=C1/C(=O)C=CC1NC(=O)OC(C)(C)C` (configuration not stated), for which, in data set [1], the AC200 amounted to 2.8 µM. Besides, the values for the CC50 at 8 h in data set [2] and in data set [3] were greater than 800 µM and 4 µM, respectively. The IC50 with Respirovirus muris was 1 µM. For the same compound, the TD100 in data set [4] turned out to be 50 µM.
For `O=C1C[C@@H](NC(=O)Oc2ccccc2)[C@H](Sc2ccc3ccccc3c2)C1`, the AC200 in data set [1] amounted to 26 µM. Besides, in data set [3], the CC50 at 8 h is 113 µM.
For the compound `CCCCC1C=CC(=O)/C1=C/C(C)C` (configuration not stated), the AC200 in data set [1] stood at 13 µM. The CC50 at 8 h in data set [2] is 506 µM. The IC50 in the data set on Respirovirus muris was 0.3 µM. The compound also returned a TD100 in data set [4] of 10 µM.
Consider `Cc1ccc(S(=O)(=O)NC(=O)OC2C=CC(=O)C2)cc1` (configuration not stated), for which the AC200 in data set [1] stood at 13 µM. For the same compound, in data set [2], the CC50 at 8 h is greater than 800 µM.
Turning to `CC(C)(C)OC(=O)NC1C=CC(=O)C1` (configuration not stated), in data set [1], the AC200 stood at 51 µM. In addition, the CC50 at 8 h in data set [2] is greater than 800 µM. Further, the IC50 in the data set with Respirovirus muris came to 20 µM. In data set [4], this compound registered a TD100 of 100 µM.
On to `CCOC(=O)N(C(=O)OC(C)(C)C)C1C=CC(=O)C1` (configuration not stated), for which the AC200 in data set [1] is 18 µM. Moreover, the CC50 at 8 h in data set [3] amounted to 233 µM.
As to `O=C1C=CC(NC(=O)CCl)C1` (configuration not stated), in data set [1], the AC200 was less than 6.2 µM. Also, in data set [3], the CC50 at 8 h was determined as 79 µM.
On the same counts, the results for `O=C1C[C@H](Sc2ccc3ccccc3c2)[C@H](NC(=O)Oc2ccccc2)C1` are 28 µM and 183 µM.
In turn, `CC1C=CC(=O)/C1=C/c1ccccc1` (configuration not stated) returned an AC200 in data set [1] of 3 µM. In data set [2], the CC50 at 8 h was 314 µM. Further, the IC50 in the data set with Respirovirus muris was found to be 0.9 µM. The compound also yielded a TD100 in data set [4] of 50 µM.
In data set [1], `CCCCC/C=C1/C(=O)C=CC1C` (configuration not stated) came in with an AC200 greater than 100 µM. The CC50 at 8 h in data set [2] was greater than 800 µM.
On the same counts, the results for `CC(C)/C=C1/C(=O)C=CC1C` (configuration not stated) are 13 µM and greater than 800 µM.
Turning to `CCCCC[C@H](O)/C=C/[C@H]1[C@H](O)CC(=O)[C@@H]1CCCCCCC(=O)O` [ALPROSTADIL], in data set [5], the Activity entry is on record as “Toxic”.
